Measured values taken from patent US9884832B2 (priority 2011, dated 2018).
Where two headings read alike, the source gives them in different places.

Tests used:
[1] = target: AM2 S31N (serine→asparagine mutation at residue 31 in the M2 protein) (Influenza A virus, UniProt P0DOF5, S31N); type: cell-based, influenza virus A/Udorn/72
[2] = target: AM2 V27A (valine→alanine mutation at residue 27 in the M2 protein) (Influenza A virus, UniProt P0DOF5, V27A); type: cell-based, influenza virus A/Udorn/72

SMILES | S31N OOcyte Inhibition at 100 uM (%) ([1]; pH 5.5) | V27A OOcyte Inhibition at 100 uM (%) ([2]; pH 5.5) | S31N OOcyte Inhibition at 100 uM (%) [1] | V27A OOcyte Inhibition at 100 uM (%) [2]
c1ccc2sc(CNC34CC5CC(CC(C5)C3)C4)cc2c1 [Example 88, Adamantan-1-yl-benzo[b]thiophen-2-ylmethyl-amine] | A (key: (A)=31-95%; (B)=0-30%) | B (key: (A)=31-95%; (B)=0-30%) |  | 
c1ccc2sc(CNC34CC5CC(CC(C5)C3)C4)nc2c1 [Example 91, Adamantan-1-yl-benzothiazol-2-ylmethyl-amine] | A (key: (A)=31-95%; (B)=0-30%) | B (key: (A)=31-95%; (B)=0-30%) |  | 
c1ccc2[nH]c(CNC34CC5CC(CC(C5)C3)C4)nc2c1 [Example 92, Adamantan-1-yl-(1H-benzoimidazol-2-ylmethyl)-amine] | A (key: (A)=31-95%; (B)=0-30%) | B (key: (A)=31-95%; (B)=0-30%) |  | 
CC(NC12CC3CC(CC(C3)C1)C2)c1ccc(C#N)s1 (stereo not shown) [Example 92a, 5-(1-(adamantan-1-ylamino)ethyl)thiophene-2-carbonitrile] |  |  | B (key: (A)=31-95%; (B)=0-30%) | B (key: (A)=31-95%; (B)=0-30%)
c1ccc2[nH]c(CNC34CC5CC(CC(C5)C3)C4)cc2c1 [Example 93, Adamantan-1-yl-(1H-indol-2-ylmethyl)-amine] | A (key: (A)=31-95%; (B)=0-30%) | B (key: (A)=31-95%; (B)=0-30%) |  | 
c1nc2ccc(CNC34CC5CC(CC(C5)C3)C4)cc2[nH]1 [Example 94, Adamantan-1-yl-(3H-benzoimidazol-5-ylmethyl)-amine] | B (key: (A)=31-95%; (B)=0-30%) | B (key: (A)=31-95%; (B)=0-30%) |  | 
c1cc2cn[nH]c2cc1CNC12CC3CC(CC(C3)C1)C2 [Example 95, Adamantan-1-yl-(1H-indazol-6-ylmethyl)-amine] | B (key: (A)=31-95%; (B)=0-30%) | A (key: (A)=31-95%; (B)=0-30%) |  | 
c1cc(CNC23CC4CC(CC(C4)C2)C3)c2cc[nH]c2c1 [Example 96, Adamantan-1-yl-(1H-indol-4-ylmethyl)-amine] | B (key: (A)=31-95%; (B)=0-30%) | A (key: (A)=31-95%; (B)=0-30%) |  | 
Oc1c(CNC23CC4CC(CC(C4)C2)C3)ccc2ccccc12 [Example 97, 2-(Adamantan-1-ylaminomethyl)-naphthalen-1-ol] | A (key: (A)=31-95%; (B)=0-30%) | B (key: (A)=31-95%; (B)=0-30%) |  | 
Cc1ccc(C(C)NC23CC4CC(CC(C4)C2)C3)s1 (stereo not shown) [Example 97a, N-(1-(5-methylthiophen-2-yl)ethyl)adamantan-1-amine] |  |  | B (key: (A)=31-95%; (B)=0-30%) | B (key: (A)=31-95%; (B)=0-30%)
c1ccc2nc(CNC34CC5CC(CC(C5)C3)C4)ccc2c1 [Example 98, Adamantan-1-yl-quinolin-2-ylmethyl-amine] | A (key: (A)=31-95%; (B)=0-30%) | B (key: (A)=31-95%; (B)=0-30%) |  | 
CCc1ccc(CNC23CC4CC(CC(C4)C2)C3)s1 [Example 98a, N-((5-ethylthiophen-2-yl)methyl)adamantan-1-amine] |  |  | A (key: (A)=31-95%; (B)=0-30%) | B (key: (A)=31-95%; (B)=0-30%)
Oc1ccc(CNC2C3CC4CC(C3)CC2C4)cc1 (stereo not shown) [Example 99, 4-(Adamantan-2-ylaminomethyl)-phenol] | B (key: (A)=31-95%; (B)=0-30%) | B (key: (A)=31-95%; (B)=0-30%) |  | 
Cc1nc(CNC23CC4CC(CC(C4)C2)C3)c[nH]1 [Example 99a, N-((2-methyl-1H-imidazol-4-yl)methyl)adamantan-1-amine] |  |  | B (key: (A)=31-95%; (B)=0-30%) | B (key: (A)=31-95%; (B)=0-30%)
Oc1ccc(CNC2C3CC4CC(C3)CC2C4)c(O)c1 (stereo not shown) [Example 100, 4-(Adamantan-2-ylaminomethyl)-benzene-1,3-diol] | B (key: (A)=31-95%; (B)=0-30%) | A (key: (A)=31-95%; (B)=0-30%) |  | 
O=[N+]([O-])c1ccc(CNC23CC4CC(CC(C4)C2)C3)s1 [Example 100a, N-((5-nitrothiophen-2-yl)methyl)adamantan-1-amine] |  |  | B (key: (A)=31-95%; (B)=0-30%) | A (key: (A)=31-95%; (B)=0-30%)

SMILES | S31N OOcyte Inhibition at 100 uM (%) ([1]; pH 5.5) | V27A OOcyte Inhibition at 100 uM (%) ([2]; pH 5.5) | S31N OOcyte Inhibition at 100 uM (%) [1] | V27A OOcyte Inhibition at 100 uM (%) [2]
Oc1ccc(CNC2C3CC4CC(C3)CC2C4)cc1O (stereo not shown) [Example 101, 4-(Adamantan-2-ylaminomethyl)-benzene-1,2-diol] | B (key: (A)=31-95%; (B)=0-30%) | B (key: (A)=31-95%; (B)=0-30%) |  | 
CC(C)(C)c1cc(CNC23CC4CC(CC(C4)C2)C3)[nH]n1 [Example 101a, N-((3-(tert-butyl)-1H-pyrazol-5-yl)methyl)adamantan-1-amine] |  |  | B (key: (A)=31-95%; (B)=0-30%) | B (key: (A)=31-95%; (B)=0-30%)
CC(NC1C2CC3CC(C2)CC1C3)c1ccc(O)cc1O (stereo not shown) [Example 102, 4-[1-(Adamantan-2-ylamino)-ethyl]-benzene-1,3-diol] | B (key: (A)=31-95%; (B)=0-30%) | A (key: (A)=31-95%; (B)=0-30%) |  | 
CSc1ccc(CNC2C3CC4CC(C3)CC2C4)cc1 (stereo not shown) [Example 103, Adamantan-2-yl-(4-methylsulfanyl-benzyl)-amine] | A (key: (A)=31-95%; (B)=0-30%) | A (key: (A)=31-95%; (B)=0-30%) |  | 
OC1CCN(C2C3CC4CC(C3)CC2C4)CC1 (stereo not shown) [Example 104, 1-Adamantan-2-yl-piperidin-4-ol] | B (key: (A)=31-95%; (B)=0-30%) | B (key: (A)=31-95%; (B)=0-30%) |  | 
c1c(CNC2C3CC4CC(C3)CC2C4)nc2n1CCS2 (stereo not shown) [Example 105, Adamantan-2-yl-(2,3-dihydro-imidazo[2,1-b]thiazol-6-ylmethyl)-amine] | B (key: (A)=31-95%; (B)=0-30%) | B (key: (A)=31-95%; (B)=0-30%) |  | 
Cc1nn2cc(CNC3C4CC5CC(C4)CC3C5)nc2s1 (stereo not shown) [Example 106, Adamantan-2-yl-(2-methyl-imidazo[2,1-b][1,3,4]thiadiazol-6-ylmethyl)-amine] | B (key: (A)=31-95%; (B)=0-30%) | A (key: (A)=31-95%; (B)=0-30%) |  | 
c1cn2cc(CNC3C4CC5CC(C4)CC3C5)nc2s1 (stereo not shown) [Example 107, Adamantan-2-yl-imidazo[2,1-b]thiazol-6-ylmethyl-amine] | B (key: (A)=31-95%; (B)=0-30%) | B (key: (A)=31-95%; (B)=0-30%) |  | 
CC1(C)CCC(NCc2ccc(O)cc2O)CC1 [Example 108, 4-[(4,4-Dimethyl-cyclohexylamino)-methyl]-benzene-1,3-diol] | B (key: (A)=31-95%; (B)=0-30%) | B (key: (A)=31-95%; (B)=0-30%) |  | 
CC(C)(C)C1CCC(NCc2ccc(O)cc2O)CC1 (stereo not shown) [Example 109, 4-[(4-tert-Butyl-cyclohexylamino)-methyl]-benzene-1,3-diol] | B (key: (A)=31-95%; (B)=0-30%) | A (key: (A)=31-95%; (B)=0-30%) |  | 
Oc1ccc(CNC23CC4CCC(CC(C4)C2)C3)c(O)c1 [Example 110, 4-(Tricyclo[4.3.1.13,8]undec-1-ylaminomethyl)-benzene-1,3-diol] | A (key: (A)=31-95%; (B)=0-30%) | A (key: (A)=31-95%; (B)=0-30%) |  | 
COc1ccc(-c2cc(CNC34CC5CC(CC(C5)C3)C4)no2)cc1 [Example 110a, N-((5-(4-methoxyphenyl)isoxazol-3-yl)methyl)adamantan-1-amine] |  |  | A (key: (A)=31-95%; (B)=0-30%) | B (key: (A)=31-95%; (B)=0-30%)
Oc1ccc(CNC23CC4CC(CC2C4)C3)c(O)c1 [Example 111, 4-[(Hexahydro-2,5-methano-pentalen-3a-ylamino)-methyl]-benzene-1,3-diol] | A (key: (A)=31-95%; (B)=0-30%) | B (key: (A)=31-95%; (B)=0-30%) |  | 
CC(C)(C)CC(C)(C)NCc1ccc(O)cc1O [Example 112, 4-[(1,1,3,3-Tetramethyl-butylamino)-methyl]-benzene-1,3-diol] | B (key: (A)=31-95%; (B)=0-30%) | A (key: (A)=31-95%; (B)=0-30%) |  | 
CSc1ccc(-c2ccc(CNC34CC5CC(CC(C5)C3)C4)s2)cc1 [Example 112a, N-((5-(4-(methylthio)phenyl)thiophen-2-yl)methyl)adamantan-1-amine] |  |  | A (key: (A)=31-95%; (B)=0-30%) | B (key: (A)=31-95%; (B)=0-30%)
C[Si](C)(C)CCCNCc1ccc(O)cc1O [Example 113, 4-[(3-Trimethylsilanyl-propylamino)-methyl]-benzene-1,3-diol] | B (key: (A)=31-95%; (B)=0-30%) | B (key: (A)=31-95%; (B)=0-30%) |  | 
